{"source": "patent US12662498B2", "about": "(priority 2017, dated 2026)", "test": "ICH stability study of psilocybin batches (appearance, water content, purity, assay)", "key": {"[1]": {"conditions": "T = 1 month, 2-8° C., listed as 170231"}, "[2]": {"conditions": "T = 1 month, 25° C./60% RH, listed as 170231"}, "[3]": {"conditions": "T = 1 month, 40° C./75% RH, listed as 170231"}, "[4]": {"conditions": "T = 3 months, 2-8° C., listed as 170231"}, "[5]": {"conditions": "T = 3 months, 25° C./60% RH, listed as 170231"}, "[6]": {"conditions": "T = 3 months, 40° C./75% RH, listed as 170231"}}, "data": [{"smiles": "CN(C)CCc1c[nH]c2cccc(OP(=O)(O)O)c12", "note": "[Batch 170231]", "values": [{"measurement": "Assay by HPLC (on a dry basis)", "setting": "T = 0", "result": 98.65, "unit": "% ^w/w % w/w"}, {"measurement": "Impurities LT 0.05%", "setting": "T = 0", "result": 0.22, "unit": "%"}, {"measurement": "Impurities by HPLC: RRT0.69", "setting": "T = 0", "result": "LT 0.05%"}, {"measurement": "Impurities by HPLC: RRT 1.49", "setting": "T = 0", "result": 0.06, "unit": "%"}, {"measurement": "Impurities by HPLC: RRT 1.62 (Psilocin)", "setting": "T = 0", "result": 0.39, "unit": "%"}, {"measurement": "Impurities by HPLC: RRT 1.70", "setting": "T = 0", "result": 0.05, "unit": "%"}, {"measurement": "Impurity at RRT 1.89", "setting": "T = 0", "result": "LT 0.05%"}, {"measurement": "Impurity at RRT 2.45", "setting": "T = 0", "result": "LT 0.05%"}, {"measurement": "Chemical Purity By HPLC", "setting": "T = 0, listed as 170231", "result": 99.28, "unit": "%"}, {"measurement": "Total Impurities", "setting": "T = 0, listed as 170231", "result": 0.72, "unit": "%"}, {"measurement": "Water content by loss on drying", "setting": "T = 0, listed as 170231", "result": 0.32, "unit": "% ^w/w % w/w"}, {"measurement": "Assay by HPLC (on a dry basis)", "setting": "T = 1 month, 2-8° C.", "result": 98.76, "unit": "% ^w/w % w/w"}, {"measurement": "Impurities LT 0.05%", "setting": "T = 1 month, 2-8° C.", "result": 0.39, "unit": "%"}, {"measurement": "Impurities by HPLC: RRT 1.49", "setting": "T = 1 month, 2-8° C.", "result": 0.05, "unit": "%"}, {"measurement": "Impurities by HPLC: RRT 1.62 (Psilocin)", "setting": "T = 1 month, 2-8° C.", "result": 0.36, "unit": "%"}, {"measurement": "Impurities by HPLC: RRT 1.70", "setting": "T = 1 month, 2-8° C.", "result": "LT 0.05%"}, {"measurement": "Impurity at RRT 1.89", "setting": "T = 1 month, 2-8° C.", "result": "LT 0.05%"}, {"measurement": "Impurity at RRT 2.45", "setting": "T = 1 month, 2-8° C.", "result": "LT 0.05%"}, {"measurement": "Chemical Purity By HPLC", "setting": "[1]", "result": 99.20, "unit": "%"}, {"measurement": "Total Impurities", "setting": "[1]", "result": 0.80, "unit": "%"}, {"measurement": "Water content by loss on drying", "setting": "[1]", "result": 0.27, "unit": "% ^w/w % w/w"}, {"measurement": "Assay by HPLC (on a dry basis)", "setting": "T = 1 month, 25° C./60% RH", "result": 97.98, "unit": "% ^w/w % w/w"}, {"measurement": "Impurities LT 0.05%", "setting": "T = 1 month, 25° C./60% RH", "result": 0.42, "unit": "%"}, {"measurement": "Impurities by HPLC: RRT 1.49", "setting": "T = 1 month, 25° C./60% RH", "result": 0.05, "unit": "%"}, {"measurement": "Impurities by HPLC: RRT 1.62 (Psilocin)", "setting": "T = 1 month, 25° C./60% RH", "result": 0.37, "unit": "%"}, {"measurement": "Impurities by HPLC: RRT 1.70", "setting": "T = 1 month, 25° C./60% RH", "result": "LT 0.05%"}, {"measurement": "Impurity at RRT 1.89", "setting": "T = 1 month, 25° C./60% RH", "result": "LT 0.05%"}, {"measurement": "Impurity at RRT 2.45", "setting": "T = 1 month, 25° C./60% RH", "result": "LT 0.05%"}, {"measurement": "Chemical Purity By HPLC", "setting": "[2]", "result": 99.16, "unit": "%"}, {"measurement": "Total Impurities", "setting": "[2]", "result": 0.84, "unit": "%"}, {"measurement": "Water content by loss on drying", "setting": "[2]", "result": 0.17, "unit": "% ^w/w % w/w"}, {"measurement": "Assay by HPLC (on a dry basis)", "setting": "T = 1 month, 40° C./75% RH", "result": 98.52, "unit": "% ^w/w % w/w"}, {"measurement": "Impurities LT 0.05%", "setting": "T = 1 month, 40° C./75% RH", "result": 0.41, "unit": "%"}, {"measurement": "Impurities by HPLC: RRT 1.49", "setting": "T = 1 month, 40° C./75% RH", "result": 0.06, "unit": "%"}, {"measurement": "Impurities by HPLC: RRT 1.62 (Psilocin)", "setting": "T = 1 month, 40° C./75% RH", "result": 0.36, "unit": "%"}, {"measurement": "Impurities by HPLC: RRT 1.70", "setting": "T = 1 month, 40° C./75% RH", "result": "LT 0.05%"}, {"measurement": "Impurity at RRT 1.89", "setting": "T = 1 month, 40° C./75% RH", "result": "LT 0.05%"}, {"measurement": "Impurity at RRT 2.45", "setting": "T = 1 month, 40° C./75% RH", "result": "LT 0.05%"}, {"measurement": "Chemical Purity By HPLC", "setting": "[3]", "result": 99.17, "unit": "%"}, {"measurement": "Total Impurities", "setting": "[3]", "result": 0.83, "unit": "%"}, {"measurement": "Water content by loss on drying", "setting": "[3]", "result": 0.19, "unit": "% ^w/w % w/w"}, {"measurement": "Assay by HPLC (on a dry basis)", "setting": "T = 3 months, 2-8° C.", "result": 98.45, "unit": "% ^w/w % w/w"}, {"measurement": "Impurities LT 0.05%", "setting": "T = 3 months, 2-8° C.", "result": 0.22, "unit": "%"}, {"measurement": "Impurities by HPLC: RRT0.69", "setting": "T = 3 months, 2-8° C.", "result": 0.05, "unit": "%"}, {"measurement": "Impurities by HPLC: RRT 1.49", "setting": "T = 3 months, 2-8° C.", "result": 0.05, "unit": "%"}, {"measurement": "Impurities by HPLC: RRT 1.62 (Psilocin)", "setting": "T = 3 months, 2-8° C.", "result": 0.37, "unit": "%"}, {"measurement": "Impurities by HPLC: RRT 1.70", "setting": "T = 3 months, 2-8° C.", "result": "LT 0.05%"}, {"measurement": "Impurity at RRT 1.89", "setting": "T = 3 months, 2-8° C.", "result": "LT 0.05%"}, {"measurement": "Impurity at RRT 2.45", "setting": "T = 3 months, 2-8° C.", "result": "LT 0.05%"}, {"measurement": "Chemical Purity By HPLC", "setting": "[4]", "result": 99.30, "unit": "%"}, {"measurement": "Total Impurities", "setting": "[4]", "result": 0.70, "unit": "%"}, {"measurement": "Water content by loss on drying", "setting": "[4]", "result": 0.17, "unit": "% ^w/w % w/w"}, {"measurement": "Assay by HPLC (on a dry basis)", "setting": "T = 3 months, 25° C./60% RH", "result": 99.46, "unit": "% ^w/w % w/w"}, {"measurement": "Impurities LT 0.05%", "setting": "T = 3 months, 25° C./60% RH", "result": 0.27, "unit": "%"}, {"measurement": "Impurities by HPLC: RRT0.69", "setting": "T = 3 months, 25° C./60% RH", "result": "LT 0.05%"}, {"measurement": "Impurities by HPLC: RRT 1.49", "setting": "T = 3 months, 25° C./60% RH", "result": 0.05, "unit": "%"}, {"measurement": "Impurities by HPLC: RRT 1.62 (Psilocin)", "setting": "T = 3 months, 25° C./60% RH", "result": 0.36, "unit": "%"}, {"measurement": "Impurities by HPLC: RRT 1.70", "setting": "T = 3 months, 25° C./60% RH", "result": "LT 0.05%"}, {"measurement": "Impurity at RRT 1.89", "setting": "T = 3 months, 25° C./60% RH", "result": "LT 0.05%"}, {"measurement": "Impurity at RRT 2.45", "setting": "T = 3 months, 25° C./60% RH", "result": "LT 0.05%"}, {"measurement": "Chemical Purity By HPLC", "setting": "[5]", "result": 99.31, "unit": "%"}, {"measurement": "Total Impurities", "setting": "[5]", "result": 0.69, "unit": "%"}, {"measurement": "Water content by loss on drying", "setting": "[5]", "result": 0.01, "unit": "% ^w/w % w/w"}, {"measurement": "Assay by HPLC (on a dry basis)", "setting": "T = 3 months, 40° C./75% RH", "result": 98.64, "unit": "% ^w/w % w/w"}, {"measurement": "Impurities LT 0.05%", "setting": "T = 3 months, 40° C./75% RH", "result": 0.34, "unit": "%"}, {"measurement": "Impurities by HPLC: RRT0.69", "setting": "T = 3 months, 40° C./75% RH", "result": "LT 0.05%"}, {"measurement": "Impurities by HPLC: RRT 1.49", "setting": "T = 3 months, 40° C./75% RH", "result": 0.06, "unit": "%"}, {"measurement": "Impurities by HPLC: RRT 1.62 (Psilocin)", "setting": "T = 3 months, 40° C./75% RH", "result": 0.39, "unit": "%"}, {"measurement": "Impurities by HPLC: RRT 1.70", "setting": "T = 3 months, 40° C./75% RH", "result": "LT 0.05%"}, {"measurement": "Impurity at RRT 1.89", "setting": "T = 3 months, 40° C./75% RH", "result": "LT 0.05%"}, {"measurement": "Impurity at RRT 2.45", "setting": "T = 3 months, 40° C./75% RH", "result": "LT 0.05%"}, {"measurement": "Chemical Purity By HPLC", "setting": "[6]", "result": 99.17, "unit": "%"}, {"measurement": "Total Impurities", "setting": "[6]", "result": 0.79, "unit": "%"}, {"measurement": "Water content by loss on drying", "setting": "[6]", "result": 0.19, "unit": "% ^w/w % w/w"}, {"measurement": "Appearance", "setting": "T = 6 months, 2-8° C.", "result": "An off white solid."}, {"measurement": "Assay by HPLC (on a dry basis)", "setting": "T = 6 months, 2-8° C.", "result": 97.97, "unit": "% ^w/w % w/w"}, {"measurement": "Chemical Purity By HPLC", "setting": "T = 6 months, 2-8° C.", "result": 99.20, "unit": "%"}, {"measurement": "Impurities LT 0.05%", "setting": "T = 6 months, 2-8° C.", "result": 0.32, "unit": "%"}, {"measurement": "Impurities by HPLC: RRT0.69", "setting": "T = 6 months, 2-8° C.", "result": 0.06, "unit": "%"}, {"measurement": "Impurities by HPLC: RRT 1.49", "setting": "T = 6 months, 2-8° C.", "result": "LT 0.05%"}]}]}
